In patent US20220033448A1, “METHODS FOR AGGREGATION OF PROTEINS” (priority 2011, published 2022):
No end group written: not given here.

What was measured:
[1] = test system: E. coli; details: E. coli ATCC25922; planktonic bacteria; read-out after 18 hours of growth
Procedure: (§1) Bacteria were grown in a shaking incubator at 37° C. and 160rpm in 50 ml BHI , using individual colonies retrieved from a fresh overnight TSA-sheep blood plate. The cultures were grown to a density of approximately 1×10^8cells/ml and then diluted to 5×10^5 cells/ml in CAMHB (Mc Farland 0.5). Each well contained 100p.I (50p.I of peptide containing MHB plus 50 μl inoculum). The final cell density was 1×10^5 to 5×10^5/ml. After addition of the cell suspension, plates were incubated at 37° C. for 18 to 24 hours. The optical density at 590 nm (OD590) of each well was measured after 5 seconds of shaking the plate using Perkin Elmer spectrophotometer (1420 Multilabel Counter Vicotr 3). […] Each well, where no growth was observed, was also plated on TSA-sheep blood agar plates, incubated at 37° C. overnight and visually inspected.
(§2) A microbroth dilution method was used with twofold serial dilutions in CAMHB (according to EMEA guidelines) was used for screening of peptide activity, with concentrations ranging from 0.3 μg/mIto 200 μg/ml.

[2] = test system: S. aureus MRSA 326; test: Neutropenic-mouse thigh model; details: neutropenic mice; bolus i.v. dose of 15 mg/kg 2 h after inoculation; sacrificed 4 hours post-infection
[3] = test system: S. hominis; details: S. hominis; planktonic; 18 hours
Procedure: as §1, §2

[4] = test system: Candida albicans SC5314; test: In vivo subcutaneous C. albicans biofilm model in rats (polyurethane catheters, CFU)
Procedure: In a next step we also investigated a potential inhibitory role of interferor peptide F9 during in vivo C. albicans biofilm development. We used the in vivo subcutaneous C. albicans biofilm model in rats (i.e. in vivo biofilms formed inside polyurethane triple lumen catheter pieces) as further outlined in the materials and methods section. Only one concentration of peptide F9 (i.e. 50 μM) was tested in the experimental conditions. The peptide was administrated ex vivo, during initial attachment of Candida to the substrate (90 min, 37° C.). Afterwards, the catheters were washed and implanted subcutaneously in rats. Biofilms were studied six days post implantation and quantified by CFUs. […]
Polyurethane triple lumen intravenous catheters (2.4 mm diameter) cut into segments of 1 cm (Arrow International Reading, USA) were incubated overnight in FBS at 37° C. […] The skin was disinfected and catheter fragments were removed from under the subcutaneous tissue, washed twice with 1× PBS and quantified or visualized.The effect of peptides promoting the aggregation of Als3p during Candida biofilm development in vivo was characterized, as well. […]
The amount of fungal biofilm biomass formed inside the catheter lumen of in vitro and in vivo explanted catheters was determined by colony forming units (CFU). […] CFUs were counted after two days at 37° C.

[5] = test system: Candida albicans SC5314; test: Invasion of C. albicans SC5314 into epithelial cell line TR-146; type: cell-based; details: invasion 3 h
Procedure: As discussed herein before, C. albicans Als3 also plays a role in adherence and invasion to epithelial and endothelial cells. […] Here we investigated the effect of external application of interferor peptide F9 on C. albicans SC5314 adherence and invasion to epithelial cells. Thereto, Candida cells were incubated together with the human cells (epithelial cell line TR-146) in the presence of peptide F9 during adhesion (1 h) or invasion (3 h). The amount of adhered and internalized cells was determined by counting using epifluorescence.
The monolayers of TR-146 cell lines were infected with Candida cells as previously described in 6.2.15. After 3 h incubation period of monolayers with Candida cells at 37° C., 5% CO2, the medium above the epithelial cells was aspirated and the monolayers were rinsed three times with 1× PBS to remove fungal cells which were not associated with epithelial cells. Next, the epithelial cells were fixed with 4% Histofix (Roth) for 20 min at 37° C. All fungal cells remaining adherent to the surface were stained for 1 h with a rabbit anti-C. albicans polyclonal antibody (Acris Antibodies, Germany) (dilution 1:2000) and counterstained with a secondary anti-rabbit IgG conjugated with Alexa Fluor 488 (Invitrogen) (dilution 1:5000). After extensive rinsing with 1× PBS, the cells were permeabilized in 0.5% Triton X-100 in water for 5 min. Further, adherent and invading parts of fungal cells within epithelial cells were stained with calcofluor white (dilution 1:100) for 15 min and washed three times with water, for 10 min at 30° C., 180 rpm. Coverslips were mounted inverted onto glass slides and the stained cells were visualized with epifluorescence using a filter set to detect calcofluor white (filter for DAPI) and Alexa Fluor 488 (Leica DFC350 FX, Mannheim, Germany). The percentage of invading C. albicans cells was determined by dividing the number of internalized cells by the total number of adherent cells. At least 100 fungal cells were counted on each coverslip.

Sequence | MIC [1] | reduction of expansion of initial inoculum [2] | MIC [3] | mean CFUs ±SD obtained per catheter fragment ([4]; 50 μM ex vivo during adhesion (90 min, 37° C.), catheters implanted subcutaneously in rats, six days post implantation, control 3.69 ±0.42) | peptide-treated catheters containing less than 2.0 log10 CFU/catheter fragment ([4]; four out of 20 catheters, 50 μM, rats, six days) | effect on invasion of epithelial cells ([5]; 2.5 μM) | decrease of invasion of epithelial cells ([5]; 10 μM) | decrease of invasion of epithelial cells ([5]; 50 μM)
RILLGLIRRGSRILLGLIRR [C30] | E. coli ATCC25922: 100 μg/ml | 6.9 Log10 CFU/ml | S. hominis: 3 μg/ml |  |  |  |  | 
RKLLFNLGSRNGIVIVATTR [F9] |  |  |  | 2.25 ±1.08 login CFU/catheter fragment | 20% | did not have any effect on invasion | 15% | 34%
